Reference: PubChem BioAssay (NCI)
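All cell lines were grown in 96-well plates and treated with compound for 48 hours. Definition used: TGI = concentration required for complete inhibition of growth.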

What was measured:
Assay in all cases: NCI tumour cell line growth inhibition, 48 h
[1] = test system: SR leukemia
[2] = test system: LOX IMVI melanoma
[3] = test system: HS 578T breast
[4] = test system: HL-60(TB) leukemia
[5] = test system: M14 melanoma
[6] = test system: MDA-MB-231 breast
[7] = test system: MCF7 breast
[8] = test system: SK-MEL-28 melanoma
[9] = test system: UACC-62 melanoma
[10] = test system: SF-539 CNS
[11] = test system: BT-549 breast
[12] = test system: OVCAR-5 ovarian
[13] = test system: A549 NSCLC
[14] = test system: NCI-H226 lung
[15] = test system: T-47D breast
[16] = test system: COLO 205 colon
[17] = test system: MDA-N
[18] = test system: CCRF-CEM leukemia
[19] = test system: MDA-MB-435
[20] = test system: RPMI-8226 leukemia
[21] = test system: HCT-116 colon
[22] = test system: KM12 colon
[23] = test system: SNB-75 CNS
[24] = test system: UO-31 renal
[25] = test system: HCC-2998 colon
[26] = test system: SK-OV-3 ovarian
[27] = test system: SW-620 colon
[28] = test system: RXF 393 renal
[29] = test system: NCI/ADR-RES ovarian
[30] = test system: SF-268 CNS
[31] = test system: EKVX NSCLC
[32] = test system: U251 CNS
[33] = test system: OVCAR-3 ovarian
[34] = test system: NCI-H522 lung
[35] = test system: CAKI-1 renal
[36] = test system: OVCAR-4 ovarian
[37] = test system: SK-MEL-2 melanoma
[38] = test system: SK-MEL-5 melanoma
[39] = test system: MOLT-4 leukemia
[40] = test system: IGROV1 ovarian
[41] = test system: K-562 leukemia
[42] = test system: HT29 colon
[43] = test system: HCT-15 colon
[44] = test system: NCI-H23 lung
[45] = test system: HOP-62 NSCLC
[46] = test system: OVCAR-8 ovarian
[47] = test system: NCI-H460 lung
[48] = test system: UACC-257 melanoma
[49] = test system: SF-295 CNS
[50] = test system: 786-0 renal
[51] = test system: ACHN renal
[52] = test system: HOP-92 NSCLC
[53] = test system: DU-145 prostate
[54] = test system: MALME-3M melanoma
[55] = test system: SNB-19 CNS
[56] = test system: PC-3 prostate
[57] = test system: TK-10 renal
[58] = test system: A498 renal
[59] = test system: SN12C renal

Measured: TGI

CSC1(C(=O)O)C2CCC3C2CCC31 (centres undefined)
> 100 µM: all assays above
